Each compound was assayed against Recombinant N-terminal GST tag full-length human HDAC11 (Homo sapiens (Human), UniProt Q96DB2) (assay: Probe binding HDAC11 assay, time resolved fluorescence (TRF)). Details: read-out: HDAC11 IC50 Range.
Experimental: The probe binding HDAC11 assay was performed using a time resolved fluorescence (TRF) assay format. Recombinant N-terminal GST tag full-length human HDAC11 was expressed and purified from baculovirus in Sf9 insect cells (SignalChem, # H93-30G-1000). Each assay was performed in 1536 black well microplates (Corning, #3936) in a final volume of 8 μL in assay buffer containing 50 mM HEPES (pH 7.5), 50 mM KCl, 50 mM NaCl, 0.5 mM GSH (L-Glutathione reduced, Sigma #G4251), 0.03% BGG (0.22 μM filtered, Sigma, #G7516-25G), and 0.01% Triton X-100 (Sigma, #T9284-10L). 100 nL of 10-point, 3-fold serial dilution in DMSO was pre-dispensed into respective wells of 1536 assay plates for a final test concentration range of 25 μM to 1.3 nM respectively. The final concentration in the assay of HDAC11 and probe (a fluorescein labeled HDAC 11 inhibitor) was 2.5 nM and 20 nM respectively. 4 μL of 2× probe and 2× anti-GST Terbium (Cisbio, #61GSTXLB) was added to assay plates followed by 4 μL of 2×HDAC11. Plates were incubated for 16 hours at room temperature before time resolved fluorescence was read on the Envision (Excitation at 340 nm, and Emission at 485 nm and 535 nm, Perkin Elmer).
Data from HDAC11 Assays were reported as percent inhibition (inh) compared with control wells based on the following equation: % inh=1−((FLU−AveLow)/(AveHigh−AveLow)) where FLU=measured time resolved fluorescence. AveLow=average time resolved fluorescence of no enzyme control (n=32). AveHigh=average time resolved fluorescence of DMSO control (n=32). IC50 values were determined by curve fitting of the standard 4 parameter logistic fitting algorithm included in the Activity Base software package: IDBS XE Designer Model205. Data is fitted using the Levenburg Marquardt algorithm.

Sequence of Recombinant N-terminal GST tag full-length human HDAC11 (Q96DB2 whole entry): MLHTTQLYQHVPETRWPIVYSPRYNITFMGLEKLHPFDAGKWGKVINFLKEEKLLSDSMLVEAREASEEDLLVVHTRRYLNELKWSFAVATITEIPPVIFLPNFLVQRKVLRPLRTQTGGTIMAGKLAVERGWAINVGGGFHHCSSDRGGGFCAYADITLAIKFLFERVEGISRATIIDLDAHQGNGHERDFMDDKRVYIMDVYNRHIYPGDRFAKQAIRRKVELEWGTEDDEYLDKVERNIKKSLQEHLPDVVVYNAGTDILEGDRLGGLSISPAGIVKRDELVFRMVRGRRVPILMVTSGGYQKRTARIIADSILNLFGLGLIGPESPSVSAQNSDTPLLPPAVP

Structure (SMILES)	IC50 [nM]
COCCN(c1cccc(C(=O)NO)c1)c1nc2ccccc2[nH]1 [Example 25-1, 3-((1H-benzo[d]imidazol-2-yl)(2-methoxyethyl)amino)-N-hydroxybenzamide]	> 1000
N#Cc1cc2nc(Oc3cccc(C(=O)NO)c3)[nH]c2cc1C(F)(F)F [Example 26-1, 3-((5-cyano-6-(trifluoromethyl)-1H-benzo[d]imidazol-2-yl)oxy)-N-hydroxybenzamide]	> 1000
N#Cc1cc2nc(Cc3cccc(C(=O)NO)c3)[nH]c2cc1C(F)(F)F [Example 27-1, 3-((5-cyano-6-(trifluoromethyl)-1H-benzo[d]imidazol-2-yl)methyl)-N-hydroxybenzamide]	< 500
O=C(NO)c1cccc(Cc2nc3cc(Cl)c(Cl)cc3[nH]2)c1 [Example 27-2, 3-((5,6-dichloro-1H-benzo[d]imidazol-2-yl)methyl)-N-hydroxybenzamide]	< 500
O=C(NO)c1cccc(Nc2cc3cc(Cl)c(Cl)cc3[nH]2)c1 [Example 28-1, 3-((5,6-dichloro-1H-indol-2-yl)amino)-N-hydroxybenzamide]	< 500
O=C(NO)c1cccc(Nc2nc3nccnc3[nH]2)c1 [Example 29-1, 3-((1H-imidazo[4,5-b]pyrazin-2-yl)amino)-N-hydroxybenzamide]	> 1000
O=C(NO)c1cccc(Nc2nc3cncnc3[nH]2)c1 [Example 30-1, 3-((9H-purin-8-yl)amino)-N-hydroxybenzamide]	> 1000
O=C(NO)c1cccc(Nc2nc3cc(Cl)c(Cl)cc3o2)n1 [Example 31-1, 6-((5,6-dichlorobenzo[d]oxazol-2-yl)amino)-N-hydroxypicolinamide]	< 500
O=C(NO)c1cccc(Nc2nc3ncccc3o2)c1 [Example 32-1, N-hydroxy-3-(oxazolo[4,5-b]pyridin-2-ylamino)benzamide]	> 1000
O=C(NO)c1cccc(Nc2nc3ncc(C(F)(F)F)cc3o2)c1 [Example 32-2, N-hydroxy-3-((6-(trifluoromethyl)oxazolo[4,5-b]pyridin-2-yl)amino)benzamide]	< 500
O=C(NO)c1cccc(Nc2nc3cc(F)c(Cl)cc3[nH]2)c1 [Example 33-1, 3-((6-chloro-5-fluoro-1H-benzo[d]imidazol-2-yl)amino)-N-hydroxybenzamide]	< 500
Cc1cc2[nH]c(Nc3cccc(C(=O)NO)c3)nc2cc1Cl [Example 33-2, 3-((5-chloro-6-methyl-1H-benzo[d]imidazol-2-yl)amino)-N-hydroxybenzamide]	< 500
O=C(NO)c1cccc(Nc2nc3cc(F)c(F)cc3[nH]2)c1 [Example 33-3, 3-((5,6-difluoro-1H-benzo[d]imidazol-2-yl)amino)-N-hydroxybenzamide]	500 to 1000
O=C(NO)c1cccc(Nc2nc3cc4c(cc3[nH]2)OCO4)c1 [Example 33-4, 3-((5H-[1,3]dioxolo[4′,5′:4,5]benzo[1,2-d]imidazol-6-yl)amino)-N-hydroxybenzamide]	> 1000
O=C(NO)c1cccc(Nc2nc3cc(F)c(C(F)(F)F)cc3[nH]2)c1 [Example 33-5, 3-((5-fluoro-6-(trifluoromethyl)-1H-benzo[d]imidazol-2-yl)amino)-N-hydroxybenzamide]	< 500
O=C(NO)c1cccc(Nc2nc3cc(Cl)c(C(F)(F)F)cc3[nH]2)c1 [Example 33-6, 3-((5-chloro-6-(trifluoromethyl)-1H-benzo[d]imidazol-2-yl)amino)-N-hydroxybenzamide]	< 500
O=C(NO)c1cccc(Nc2nc3cc(Br)c(OC(F)(F)F)cc3[nH]2)c1 [Example 33-7, 3-((5-bromo-6-(trifluoromethoxy)-1H-benzo[d]imidazol-2-yl)amino)-N-hydroxybenzamide]	< 500
O=C(NO)c1cccc(Nc2nc3cc4c(cc3[nH]2)OCCCO4)c1 [Example 33-8, 3-((7,8-dihydro-1H,6H-[1,4]dioxepino[2′,3′:4,5]benzo[1,2-d]imidazol-2-yl)amino)-N-hydroxybenzamide]	> 1000
O=C(NO)c1cccc(Nc2nc3cc4c(cc3[nH]2)OCCO4)c1 [Example 33-9, 3-((6,7-dihydro-1H-[1,4]dioxino[2′,3′:4,5]benzo[1,2-d]imidazol-2-yl)amino)-N-hydroxybenzamide]	500 to 1000

Structure (SMILES)	IC50 [nM]
Cc1cc2[nH]c(Nc3cccc(C(=O)NO)c3)nc2cc1F [Example 33-10, 3-((5-fluoro-6-methyl-1H-benzo[d]imidazol-2-yl)amino)-N-hydroxybenzamide]	< 500
O=C(NO)c1cccc(Nc2nc3cc(Br)c(C(F)(F)F)cc3[nH]2)c1 [Example 33-11, 3-((5-bromo-6-(trifluoromethyl)-1H-benzo[d]imidazol-2-yl)amino)-N-hydroxybenzamide]	< 500
Cc1cc2[nH]c(Nc3cccc(C(=O)NO)c3)nc2cc1Br [Example 33-12, 3-((5-bromo-6-methyl-1H-benzo[d]imidazol-2-yl)amino)-N-hydroxybenzamide]	< 500
COc1cc2nc(Nc3cccc(C(=O)NO)c3)[nH]c2cc1OC [Example 33-13, 3-((5,6-dimethoxy-1H-benzo[d]imidazol-2-yl)amino)-N-hydroxybenzamide]	> 1000
O=C(NO)c1cccc(Nc2nc3cc(Cl)c(Cl)cc3[nH]2)c1 [Example 33-14, 3-((5,6-dichloro-1H-benzo[d]imidazol-2-yl)amino)-N-hydroxybenzamide]	< 500
O=C(NO)c1cccc(Nc2nc3cc(Cl)c([N+](=O)[O-])cc3[nH]2)c1 [Example 33-15, 3-((5-chloro-6-nitro-1H-benzo[d]imidazol-2-yl)amino)-N-hydroxybenzamide]	< 500
O=C(NO)c1cccc(Nc2nc3cc(F)c(Br)cc3[nH]2)c1 [Example 33-16, 3-((6-bromo-5-fluoro-1H-benzo[d]imidazol-2-yl)amino)-N-hydroxybenzamide]	< 500
O=C1COc2cc3[nH]c(Nc4cccc(C(=O)NO)c4)nc3cc2N1 [Example 33-18, N-hydroxy-3-((7-oxo-3,6,7,8-tetrahydroimidazo[4′,5′:4,5]benzo[1,2-b][1,4]oxazin-2-yl)amino)benzamide]	> 1000
COc1cc2nc(Nc3cccc(C(=O)NO)c3)[nH]c2cc1Cl [Example 33-19, 3-((6-chloro-5-methoxy-1H-benzo[d]imidazol-2-yl)amino)-N-hydroxybenzamide]	500 to 1000
O=C(NO)c1cccc(Nc2nc3cc(Cl)ccc3[nH]2)c1 [Example 33-20, 3-((5-chloro-1H-benzo[d]imidazol-2-yl)amino)-N-hydroxybenzamide]	> 1000
O=C(NO)c1cccc(Nc2nc3cc([N+](=O)[O-])ccc3[nH]2)c1 [Example 33-21, N-hydroxy-3-((5-nitro-1H-benzo[d]imidazol-2-yl)amino)benzamide]	500 to 1000
O=C(NO)c1cccc(Nc2nc3cc(C(F)(F)F)ccc3[nH]2)c1 [Example 33-22, N-hydroxy-3-((5-(trifluoromethyl)-1H-benzo[d]imidazol-2-yl)amino)benzamide]	< 500
CS(=O)(=O)c1ccc2[nH]c(Nc3cccc(C(=O)NO)c3)nc2c1 [Example 33-23, N-hydroxy-3-((5-(methylsulfonyl)-1H-benzo[d]imidazol-2-yl)amino)benzamide]	> 1000
NS(=O)(=O)c1ccc2[nH]c(Nc3cccc(C(=O)NO)c3)nc2c1 [Example 33-24, N-hydroxy-3-((5-sulfamoyl-1H-benzo[d]imidazol-2-yl)amino)benzamide]	> 1000
CN(c1cccc(C(=O)NO)c1)c1nc2cc(-c3cccnc3)c(C(F)(F)F)cc2n1C [Example 34-1, N-hydroxy-3-(methyl(1-methyl-5-(pyridin-3-yl)-6-(trifluoromethyl)-1H-benzo[d]imidazol-2-yl)amino)benzamide]	> 1000
CN(c1cccc(C(=O)NO)c1)c1nc2cc(C(F)(F)F)c(-c3cccnc3)cc2n1C [Example 34-2, N-hydroxy-3-(methyl(1-methyl-6-(pyridin-3-yl)-5-(trifluoromethyl)-1H-benzo[d]imidazol-2-yl)amino)benzamide]	> 1000
CN(c1cccc(C(=O)NO)c1)c1nc2cc(C(F)(F)F)c(-c3ccccc3)cc2n1C [Example 34-3, N-hydroxy-3-(methyl(1-methyl-6-phenyl-5-(trifluoromethyl)-1H-benzo[d]imidazol-2-yl)amino)benzamide]	500 to 1000
Cn1c(Nc2cccc(C(=O)NO)c2)nc2cc(-c3cccnc3)c(C(F)(F)F)cc21 [Example 35-1, N-hydroxy-3-((1-methyl-5-(pyridin-3-yl)-6-(trifluoromethyl)-1H-benzo[d]imidazol-2-yl)amino)benzamide]	500 to 1000
Cn1c(Nc2cccc(C(=O)NO)c2)nc2cc(C(F)(F)F)c(-c3cccnc3)cc21 [Example 35-2, N-hydroxy-3-((1-methyl-6-(pyridin-3-yl)-5-(trifluoromethyl)-1H-benzo[d]imidazol-2-yl)amino)benzamide]	< 500
